Experimental data published in article PMC6107127, “Characteristics of the mitochondrial and cellular uptake of MPP^+, as probed by the fluorescent mimic, 4'I-MPP^+” (PLoS ONE, 2018).

Assays:
[1] = test system: rat brain mitochondrial complex-I (NADH: ubiquinone oxidoreductase); test: Ubiquinone dependent NADH oxidation (complex-I inhibition); assay type: biochemical
Description: Isolated rat brain mitochondria were lysed by freeze-thawing in hypotonic media containing 25 mM K3PO4 and 5 mM MgCl2, pH 7.2 [22]. The complex-I (i.e. NADH: ubiquinone oxidoreductase) activity of mitochondrial membrane fragments were determined according to the procedure of Birch-Machin and Turnbull. Briefly, mitochondrial membranes (50 μg protein) were incubated with 130 μM NADH (final concentration) and Antimycine A (2 μg/mL) in a 1.0 mL assay solution containing 25 mM K3PO4, 5 mM MgCl2, 2 mM KCN, 2.5 mg/mL bovine serum albumin, pH 7.2, for 2 min at 37 °C with or without rotenone, MPP^+ or 4'I-MPP^+ (for further details see the corresponding figure legends). The complex-I mediated ubiquinone dependent NADH oxidation was initiated by adding ubiquinone-1 to a final concentration of 65 μM and the initial rates of the reactions were monitored by following the decrease in absorbance at 340 nm with respect to 425 nm reference wavelength for 5 min.

[2] = Relative HPLC elution times and hydrophobicities; assay type: physicochemical
[3] = test system: isolated intact MN9D mitochondria; test: Effects of Ca2+ and inhibitors on MN9D mitochondrial uptake of 4'I-MPP+; design: species or system mouse
Description: Intact MN9D cell mitochondria were incubated with 200 μM 4'I-MPP^+ for 45 min at 37 °C in 0, 500 or 1000 nM Ca^2+ containing KCl buffer. When mNCX inhibitors (KBR7943, 2APB and CGP37157) were used, mitochondrial suspensions were initially incubated with 10, 25 or 50 μM inhibitor in KCl buffer for 10 min at 37 °C and then with 200 μM 4'I- MPP^+ for 45 min at 37 °C. After the incubations, samples were centrifuged at 7,000 x g at 4 °C for 10 min and the mitochondrial pellets were treated with 75 μL of 0.1 M HClO4. […] To visualize the effect of CGP37157 on the mitochondrial uptake of 4'I-MPP^+ in live cells, HepG2 cells grown in glass-bottomed plates were incubated with 50 μM CGP37157 for 30 min initially and then with 100 μM 4'I-MPP^+ and 200 nM MitoTracker Green FM in KRB-HEPES for 1 h at 37 °C. After incubation cells were washed and reconstituted with KRB-HEPES, pH 7.4 and 4'I-MPP^+ and MitoTracker Green FM fluorescence images of cells were recorded as detailed above. Controls were treated under the same experimental conditions, except that CGP37157 was omitted from the initial incubation.
S4 Fig. Effects of Benzamil, Verapamil, FFA, and ruthenium red on the MN9D mitochondrial uptake of 4'I-MPP+. MN9D mitochondrial suspensions were initially incubated with a 50 μM concentration of the desired agent (10 μM Ruthenium red) in KCl buffer for 10 min at 37 °C and then incubated with 200 μM 4'I-MPP+ for 45 min at 37 °C. After the incubations, the […] 4'I-MPP+ contents were quantified by RP-HPLC-UV as described in Material and methods. The data are represented as mean ± S.D (n=3).
(also on this page, place not known: contol 10uM Ru red BenzamilVerapamil FFA 4I' MPP+ uptake (nmoles/mg) 0.0 0.1 0.2 0.3 0.4 0.5)
(1 picture or pasted object on this page, not shown here)

HepG2 cells [4] = test: Effect of CGP37157 and KBR7943 on 4'I-MPP+-mediated mitochondrial membrane depolarization (TMRM); assay type: cell-based, human; details: 50 μM pre-treatment 30 min, 100 μM 4'I-MPP+
Description: HepG2 cells grown in glass-bottomed plates for two days were treated with 50 μM CGP37157 or KBR7943 in KRB-HEPES for 30 min followed by 50 nM TMRM in KRB-HEPES for 45 min. Then plates were mounted on the stage of the microscope and mitochondrial membrane depolarization upon the treatment with 100 μM 4'I-MPP^+ was measured as a function of time as detailed above. The effect of CGP37157 on the 4'I-MPP^+ mediated mitochondrial membrane depolarization at longer time periods was monitored by observing the reduction of TMRM fluorescence from 0 to 4 h incubations in the presence or absence of CGP37157. HepG2 cells were incubated with or without 10 μM CGP37157 followed by 50 nM TMRM, and finally with 4'I-MPP^+ (100 μM, 0 or 4 h) and the intracellular TMRM fluorescence was recorded. Controls were carried out using an identical protocol except that either CGP37157 or 4'I-MPP^+ were omitted from the incubation media.

MN9D cells [5] = test: Intracellular ATP levels; assay type: cell-based, mouse; details: 100 μM, 6 h at 37 °C
Description: (§1) Cells grown in 12-well plates were treated with 100 μM MPP^+ or 4'I-MPP^+ in KRB-HEPES for 6 h at 37 °C. After the treatments, cells were suspended in 1 mL of ice-cold KRB-HEPES and 50 μL samples were withdrawn for protein quantification. The remaining cell suspensions were centrifuged for 3 min at 3,500 x g at 4 °C and the cell pellets were treated with 1 mL of lysis buffer (0.1 M Tris, 1% Triton X-100, pH 7.5) for 2 min and centrifuged at 3,500 x g for 3 min to remove the cell debris. The ATP contents of the supernatants were measured using a fluorometric ATP assay kit (BioVision, Milpitas CA, USA) following the manufacture’s guidelines. All ATP levels were normalized to the protein content of each sample.

HepG2 cells [6] = test: MTT cell viability assay; assay type: cell-based, human; details: MPP+ at 0–1000 μM, 4'I-MPP+ at 0–200 μM; 16 h
Description: (§2) Cell viability was determined by the MTT [3-(4,5-dimethylthiazol-2-yl)-2,5-diphenyltetrazolium bromide)] assay. Briefly, cells were seeded on 96-well plates and allowed to grow to about 70–80% confluence. Prior to the experiment, culture media was replaced with KRB-HCO3^- containing desired concentrations of MPP^+ or 4'I-MPP^+ and incubated for 16 h at 37 °C. After the incubation, 10 μL of 5 mg/mL MTT solution was added to each well and incubated for 2 h at 37 °C. The resulting formazan was solubilized by the addition of 210 μL detergent solution [50% DMF/H2O (v/v), 20% SDS (w/v)] followed by incubation at 37 °C for 12 h. The cell viabilities were determined by quantifying solubilized formazan by measuring the difference in the absorbance at 570 nm and 650 nm. Results were expressed as % viability of MPP^+ or 4'I-MPP^+ treated cells with respect to control cells, which were treated under the same conditions except in the absence of the MPP^+ or 4'I-MPP^+.

MN9D cells [7] = test: Cellular uptake of MPP+ and 4'I-MPP+ (HPLC-UV / fluorescence); assay type: cell-based, mouse; details: 100 μM toxin, 60 min, 37 °C, KRB-HEPES
Description: (§3) Cells were seeded into 12-well plates at 0.25 x 10^6 cells/well and grown 2–3 days to about 70–80% confluency. The media was removed and a solution containing 100 μM MPP^+ or 4'I-MPP^+ in warm KRB-HEPES (or without Ca^2+ and with 1.4 mM EGTA) was added to each well and incubated at 37 °C for the desired period of time (see Figure legends for further details). After the incubations, the media were removed and cells were washed with ice-cold KRB-HEPES. Washed cells were suspended in 1.0 mL of ice-cold KRB-HEPES and 50 μL aliquots were withdrawn for protein determination. The remaining cell suspensions were centrifuged at 5000 x g at 4 °C for 5 min and the cell pellets were treated with 75 μL of 0.1 M HClO4. The coagulated proteins were pelleted by centrifugation at 13,200 x g at 4 °C for 8 min and the MPP^+ or 4'I-MPP^+ contents of the supernatants were determined by C18-reversed-phase HPLC-UV (HPLC-UV) as previously described using standard curves constructed from authentic standards. The standard curves for HPLC-UV quantifications were constructed using authentic samples of MPP^+ and 4'I-MPP^+ under the same HPLC-UV separation conditions (S1 Fig).
(§4) To quantify 4'I-MPP^+ uptake by fluorescence, MN9D or HepG2 cells grown in glass bottomed plates, washed, and reconstituted with KRB-HEPES (1.0 mL), pH 7.4, and mounted on the stage of a Nikon ECLIPSE Ti-S inverted fluorescence microscope. […]

MN9D or HepG2 cells = test: Mitochondrial membrane potential depolarization (TMRM); assay type: cell-based; details: 500 μM, in about 45 min
Description: MN9D or HepG2 cells grown in glass-bottomed plates were treated with 50 nM TMRM (AnaSpec, Fremont CA, USA) in KRB-HEPES for 45 min in the dark. After mounting on the stage of a Nikon ECLIPSE Ti-S inverted fluorescence microscope, 15–20 ROIs with uniform fluorescence were selected and TMRM fluorescence at Ex/Em at 543/573 nm was recorded at 5 sec time intervals for 3 min. Then, MPP^+ or 4'I-MPP^+ was added to a final concentration of 500 or 100 μM, respectively and TMRM fluorescence measurements were continued for an additional 40 min for MPP^+ and 15 min for 4'I-MPP^+ at 15 sec time intervals. The background fluorescence was subtracted from the ROI fluorescence and averages of corrected data were used to estimate the magnitude of the mitochondrial membrane potential.

MN9D cells [8] = test: MTT cell viability assay; assay type: cell-based; details: Mus musculus, 16 h incubation
Description: as §2

MN9D cells [9] = test: Intracellular ROS (DCFH-DA); assay type: cell-based, mouse; details: 100 μM, 1 h at 37 °C
Description: Cells grown in 12-well plates were incubated with 10 μM DCFH-DA in KRB-HEPES for 1 h. […] After the incubations, cells were washed, harvested, solubilized with 0.1 M Tris buffer (pH 7.5) containing 1% Triton X-100, and cell debris were removed by centrifugation at 13,200 x g for 8 min at 4 °C. The content of ROS-oxidized DCFH product, 2',7'-dichlorofluorescein (DCF) in the supernatants were quantified by fluorescence (Ex/Em 488/524 nm). The data were normalized to the protein contents of individual samples. ROS productions in DCFH-DA (50 μM) loaded 250 μM 4'I-MPP^+ treated (4 h) live MN9D cells were visualized by confocal fluorescence microscopy at Ex/Em 488/524 nm using a Leica TCS SP5II microscope.

HepG2 cells [10] = test: Cellular uptake of MPP+ and 4'I-MPP+ (HPLC-UV / fluorescence); assay type: cell-based, human; details: 100 μM toxin, 60 min
Description: as §3, §4

HepG2 cells [11] = test: Intracellular ATP levels; assay type: cell-based, human; details: 100 μM, 6 h at 37 °C
Description: as §1

MN9D cells [12] = test: Chromatin condensation test for apoptosis (DAPI); assay type: cell-based, mouse; details: 250 μM, 12 h
Description: MN9D cells grown in glass-bottomed plates were treated with 250 μM MPP^+ or 4'I- MPP^+ for 12 h and then with 300 nM DAPI in KRB-HEPES for 15 min in the dark at 37 °C [24]. Then cells were rinsed and PBS was added to cover the cell layer. Increase in nuclear DAPI fluorescence (Ex/Em at 358/461 nm) due to chromatin condensation was observed using a Nikon ECLIPSE Ti-S inverted fluorescence microscope. The controls were treated similarly except that MPP^+ or 4'I-MPP^+ was omitted from the initial incubation medium.

[13] = 50 μM agent, 200 μM 4'I-MPP+ (S4 Fig)
[14] = 50 μM inhibitor at 200 μM 4'I-MPP+

C=C(C)[C@H]1Cc2c(ccc3c2O[C@@H]2COc4cc(OC)c(OC)cc4[C@@H]2C3=O)O1 [rotenone]
inhibition of NADH oxidation (complex-I) activity ([1]; 10 μM): about 90%

C[n+]1ccc(-c2ccc(F)cc2)cc1 [4F' MPP^+]
relative elution time (hydrophobicity) ([2]; Buffer:CH3CN 70:30): 6.44
relative elution time (hydrophobicity) ([2]; Buffer:CH3CN:MeOH 60:30:10): 5.68
relative elution time (hydrophobicity) ([2]; Buffer:CH3CN:MeOH 65:25:10): 6.60

COc1ccc(CCN(C)CCCC(C#N)(c2ccc(OC)c(OC)c2)C(C)C)cc1OC (centres unmarked) [verapamil]
effect on uptake of 4'I-MPP+ [3, 13]: no significant effect

NCCOB(c1ccccc1)c1ccccc1 [2APB]
effect on uptake of 4'I-MPP+ [3, 14]: inhibit the uptake

NC(=NCc1ccccc1)NC(=O)c1nc(Cl)c(N)nc1N [benzamil]
effect on uptake of 4'I-MPP+ [3, 13]: no significant effect

N=C(N)SCCc1ccc(OCc2ccc([N+](=O)[O-])cc2)cc1 [KBR7943]
effect on uptake of 4'I-MPP+ [3, 14]: inhibit the uptake
effect on 4'I-MPP+ mitochondrial membrane depolarization (HepG2 cells [4]): significantly reduced

C[n+]1ccc(-c2ccc(Br)cc2)cc1 [4Br' MPP^+]
relative elution time (hydrophobicity) ([2]; Buffer:CH3CN 70:30): 9.67
relative elution time (hydrophobicity) ([2]; Buffer:CH3CN:MeOH 60:30:10): 7.74
relative elution time (hydrophobicity) ([2]; Buffer:CH3CN:MeOH 65:25:10): 10.30

C[n+]1ccc(-c2ccccc2)cc1 [MPP^+, 1-methyl-4-phenylpyridinium]
effect on intracellular ATP levels (MN9D cells [5]): deplete intracellular ATP levels
HepG2 cell toxicity (HepG2 cells [6]): resistant
cellular uptake in 1 h (MN9D cells [7]): 0.6 nmoles/mg of protein
inhibition of the complex-I activity ([1]; 200 μM): 21%
relative elution time (hydrophobicity) ([2]; Buffer:CH3CN 70:30): 5.92
relative elution time (hydrophobicity) ([2]; Buffer:CH3CN:MeOH 60:30:10): 5.28
relative elution time (hydrophobicity) ([2]; Buffer:CH3CN:MeOH 65:25:10): 6.02
depolarization of the mitochondrial membrane (MN9D or HepG2 cells): 20–50%
IC50 (MN9D cells [8]): ~125 µM
effect on ROS production (MN9D cells [9]): increase ROS production
cellular uptake in 60 min (HepG2 cells [10]): about 1.2 nmoles/mg
effect on intracellular ATP levels (HepG2 cells [11]): deplete intracellular ATP levels
apoptotic cell death (chromatin condensation) (MN9D cells [12]): cause apoptotic MN9D cell death

C[n+]1ccc(-c2ccc(Cl)cc2)cc1 [4Cl' MPP^+]
relative elution time (hydrophobicity) ([2]; Buffer:CH3CN 70:30): 8.66
relative elution time (hydrophobicity) ([2]; Buffer:CH3CN:MeOH 60:30:10): 7.08
relative elution time (hydrophobicity) ([2]; Buffer:CH3CN:MeOH 65:25:10): 9.17

N.N.N.N.N.N.N.N.N.N.N.N.N.N.[Cl-].[Cl-].[Cl-].[Cl-].[Cl-].[Cl-].[O-2].[O-2].[Ru+3].[Ru+3].[Ru+4] [ruthenium red]
inhibition of 4'I-MPP+ uptake ([3]; 10 μM ruthenium red, 200 μM 4'I-MPP+): ~ 10%
